≈ marks a conversion by molar mass, not a printed value.
Test system: A-549 cells derived from human lung cancer
Assay: Cell proliferation inhibition, MTT (Example 2)
Assay type: cell-based
Conditions: A549, read-out: IC50 (concentration that inhibited cell proliferation 50%), A-549, 48 hours
Procedure: Into each well of a 96-well microtiter plate, 100 μl of A-549 cells derived from human lung cancer prepared to 10^5 cells/ml in a culture medium obtained by adding 10% bovine fetus serum to EMEM culture medium (Nissui Seiyaku Co., Ltd.) having antitumor effect against A-549 cells derived from human lung cancer was placed. Methanol solution of racemic NSCL-96F037 obtained as in Example 1 was added to the wells of the uppermost row, specimens were diluted by the half-log dilution method and added, and the plate was incubated in a carbon dioxide gas incubator at 37° C. for 48 hours. The result was added in lots of 10 μl with MTT reagent (3-(4,5-dimethyl-2-thiazole)-2,5-diphenyl-2H-tetra bromide) (1 mg/ml•PBS), followed by incubation in a carbon dioxide gas incubator at 37° C. for 6 hours. The culture medium was discarded and the crystal of produced in the cells was dissolved in 100 μl/well of dimethylsulfoxide. Absorption of 595 nm light was then measured with a microplate reader.

Molecule `C=CC(C)(C)c1[nH]cnc1/C=C1\NC(=O)[C@H](Cc2ccccc2)NC1=O` (racemic) [PLH, phenylahistin] has an IC50 of 0.3 µg/mL (≈ 0.856 µM).

— patent US20040102454A1, “Phenylahistin and the phenylahistin analogs, a new class of anti-tumor compounds” (priority 1998, published 2004)
